Patent US8269008B2, “Oxazolopyridine and isoxazolopyridine derivatives for use in the treatment of HIF-mediated conditions” (FibroGen, Inc., priority 2007, dated 2012)

Molecular target: T1, HIF-PH2 (EGLN1) (Homo sapiens, UniProt Q9GZT9)
T1 construct: made in house; host or cells: insect Hi5 cells
Experiment: HIF-PH assay (14CO2 capture, peptide-dependent turnover)
Type: biochemical
Details: for inhibition at 22.22 µM: Concentration 22.22 μM
Excerpt: Ketoglutaric acid α-[1-^14C]-sodium salt, alpha-ketoglutaric acid sodium salt, and HPLC purified peptide may be obtained from commercial sources, e.g., Perkin-Elmer (Wellesley Mass.), Sigma-Aldrich, and SynPep Corp. (Dublin Calif.), respectively. Peptides for use in the assay may be fragments of HIFα as described above or as disclosed in International Publication WO 2005/118836, incorporated by reference herein. For example, a HLF peptide for use in the HIF-PH assay is [methoxycoumarin]-DLDLEALAPYIPADDDFQL-amide. HIF-PH, e.g., HIF-PH2 (EGLN1), can be expressed in, e.g., insect Hi5 cells, and partially purified, e.g., through a SP ion exchange chromatography column. Enzyme activity is determined by capturing ^14CO2 using an assay described by Kivirikko and Myllyla (1982, Methods Enzymol. 82:245-304). Assay reactions contain 50 mM HEPES (pH 7.4), 100 μM α-ketoglutaric acid sodium salt, 0.30 μCi/mL ketoglutaric acid α-[1-^14C]-sodium salt, 40 μM FeSO4, 1 mM ascorbate, 1541.8 units/mL Catalase, with or without 50 μM peptide substrate and various concentrations of compound of the invention. Reactions are initiated by addition of HIF-PH enzyme.
The peptide-dependent percent turnover is calculated by subtracting percent turnover in the absence of peptide from percent turnover in the presence of substrate peptide. Percent inhibition and IC50 are calculated using peptide-dependent percent turnover at given inhibitor concentrations. Calculation of IC50 values for each inhibitor is conducted using GraFit software (Erithacus Software Ltd., Surrey UK). […]

T1 sequence (Q9GZT9 whole entry, species assumed): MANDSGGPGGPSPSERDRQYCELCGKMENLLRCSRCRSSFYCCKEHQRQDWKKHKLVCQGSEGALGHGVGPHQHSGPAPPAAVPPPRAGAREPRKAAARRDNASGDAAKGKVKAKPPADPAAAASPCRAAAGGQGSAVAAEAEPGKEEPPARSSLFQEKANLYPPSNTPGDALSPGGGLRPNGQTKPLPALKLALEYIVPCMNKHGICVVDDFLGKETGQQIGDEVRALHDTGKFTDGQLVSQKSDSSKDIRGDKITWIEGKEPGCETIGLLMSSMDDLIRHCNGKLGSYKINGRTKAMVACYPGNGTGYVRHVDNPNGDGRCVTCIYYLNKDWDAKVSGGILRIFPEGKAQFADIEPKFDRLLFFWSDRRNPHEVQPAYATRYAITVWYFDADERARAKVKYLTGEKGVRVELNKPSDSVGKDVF

| inhibition at 22.22 µM [%] | inhibition at 200 µM (Concentration 200.00 μM) [%] | SMILES | other results |
| --- | --- | --- | --- |
| 98.5 |  | O=C(O)CNC(=O)c1nc(-c2ccncc2)c2onc(-c3ccccc3)c2c1O [Example 36, [(4-Hydroxy-3-phenyl-7-pyridin-4-yl-isoxazolo[5,4-c]pyridine-5-carbonyl)-amino]-acetic acid] |  |
| 98.8 |  | CC(C)(C)c1ccc(-c2noc3cnc(C(=O)NCC(=O)O)c(O)c23)cc1 [Example 40, {[3-(4-tert-Butyl-phenyl)-4-hydroxy-isoxazolo[5,4-c]pyridine-5-carbonyl]-amino}-acetic acid] |  |
|  |  | O=C(O)CNC(=O)c1nc(NCC(=O)O)c2onc(-c3cccc(Cl)c3)c2c1O [Example 27, {[3-(3-Chloro-phenyl)-7-(ethanic acid-2-yl)amino-4-hydroxy-isoxazolo[5,4-c]pyridine-5-carbonyl]-amino}-acetic acid] | % Inhibition (HIF-PH2) (Concentration 200.00 μM): 96.45% |
| 95.7 |  | O=C(O)CNC(=O)c1ncc2onc(-c3ccccc3Cl)c2c1O [Example 15, {[3-(2-Chloro-phenyl)-4-hydroxy-isoxazolo[5,4-c]pyridine-5-carbonyl]-amino}-acetic acid] |  |
| 97.9 |  | COc1ccc(-c2noc3cnc(C(=O)NCC(=O)O)c(O)c23)cc1 [Example 16, {[4-Hydroxy-3-(4-methoxy-phenyl)-isoxazolo[5,4-c]pyridine-5-carbonyl]-amino}-acetic acid] |  |
| 97.4 |  | N#Cc1ccc(-c2noc3cnc(C(=O)NCC(=O)O)c(O)c23)cc1 [Example 68, {[3-(4-Cyano-phenyl)-4-hydroxy-isoxazolo[5,4-c]pyridine-5-carbonyl]-amino}-acetic acid] |  |
|  | 98.6 | O=C(O)CNC(=O)c1ncc2c(-c3ccc(F)cc3)noc2c1O [Example 45, {[3-(4-Fluoro-phenyl)-7-hydroxy-isoxazolo[4,5-c]pyridine-6-carbonyl]-amino}-acetic acid] |  |
|  | 61 | C[C@@H](NC(=O)c1ncc2onc(-c3ccccc3)c2c1O)C(=O)O [Example 31, 2-[(4-Hydroxy-3-phenyl-isoxazolo[5,4-c]pyridine-5-carbonyl)-amino]-(R)-propionic acid] |  |
|  | 98.6 | N#Cc1nc(C(=O)NCC(=O)O)c(O)c2onc(-c3ccc(F)cc3)c12 [Example 52, {[4-Cyano-3-(4-fluoro-phenyl)-7-hydroxy-isoxazolo[4,5-c]pyridine-6-carbonyl]-amino}-acetic acid] |  |
|  | 98.6 | Cc1nc(C(=O)NCC(=O)O)c(O)c2c(-c3ccccc3)noc12 [Example 12, [(4-Hydroxy-7-methyl-3-phenyl-isoxazolo[5,4-c]pyridine-5-carbonyl)-amino]-acetic acid] |  |
| 98.7 |  | N#Cc1nc(C(=O)NCC(=O)O)c(O)c2c(-c3ccc(Cl)cc3)noc12 [Example 25, {[3-(4-Chloro-phenyl)-7-cyano-4-hydroxy-isoxazolo[5,4-c]pyridine-5-carbonyl]-amino}-acetic acid] |  |
| 98.8 |  | O=C(O)CNC(=O)c1ncc2onc(-c3ccc(Cl)cc3)c2c1O [Example 14, {[3-(4-Chloro-phenyl)-4-hydroxy-isoxazolo[5,4-c]pyridine-5-carbonyl]-amino}-acetic acid] |  |
|  | 99 | COc1cccc(-c2nc(C(=O)NCC(=O)O)c(O)c3oc(-c4ccccc4)nc23)c1 [Example 10, {[7-Hydroxy-4-(3-methoxy-phenyl)-2-phenyl-oxazolo[4,5-c]pyridine-6-carbonyl]-amino}-acetic acid] |  |
|  | 98.7 | C[C@H](NC(=O)c1ncc2c(-c3ccccc3)noc2c1O)C(=O)O [Example 43, (S)-2-[(7-Hydroxy-3-phenyl-isoxazolo[4,5-c]pyridine-6-carbonyl)amino]-propionic acid] |  |
|  | 99 | O=C(O)CNC(=O)c1ncc2c(-c3cccs3)noc2c1O [Example 47, [(7-Hydroxy-3-thiophen-2-yl-isoxazolo[4,5-c]pyridine-6-carbonyl)-amino]-acetic acid] |  |
|  | 82.2 | C[C@@H](NC(=O)c1ncc2c(-c3ccccc3)noc2c1O)C(=O)O [Example 44, (R)-2-[(7-Hydroxy-3-phenyl-isoxazolo[4,5-c]pyridine-6-carbonyl)-amino]-propionic acid] |  |
|  | 100 | CC(=O)c1nc(C(=O)NCC(=O)O)c(O)c2onc(-c3ccccc3)c12 [Example 61, [(4-Acetyl-7-hydroxy-3-phenyl-isoxazolo[4,5-c]pyridine-6-carbonyl)-amino]-acetic acid] |  |
|  | 98.8 | N#Cc1nc(C(=O)NCC(=O)O)c(O)c2onc(-c3cccs3)c12 [Example 51, [(4-Cyano-7-hydroxy-3-thiophen-2-yl-isoxazolo[4,5-c]pyridine-6-carbonyl)-amino]-acetic acid] |  |
|  | 99.5 | Cc1nc(C(=O)NCC(=O)O)c(O)c2onc(-c3ccccc3)c12 [Example 50, [(7-Hydroxy-4-methyl-3-phenyl-isoxazolo[4,5-c]pyridine-6-carbonyl)-amino]-acetic acid] |  |
|  | 100 | O=C(O)CNC(=O)c1ncc2c(C3=CCCCC3)noc2c1O [Example 65, [(3-Cyclohex-1-enyl-7-hydroxy-isoxazolo[4,5-c]pyridine-6-carbonyl)-amino]-acetic acid] |  |
| 98.9 |  | COc1ccc(-c2noc3c(O)c(C(=O)NCC(=O)O)nc(-c4ccccc4)c23)cc1 [Example 55, {[7-Hydroxy-3-(4-methoxy-phenyl)-4-phenyl-isoxazolo[4,5-c]pyridine-6-carbonyl]-amino}-acetic acid] |  |
|  | 99.1 | CCc1noc2c(O)c(C(=O)NCC(=O)O)ncc12 [Example 66, [(3-Ethyl-7-hydroxy-isoxazolo[4,5-c]pyridine-6-carbonyl)-amino]-acetic acid] |  |
|  | 99.4 | COc1ccc(-c2noc3c(O)c(C(=O)NCC(=O)O)ncc23)cc1 [Example 46, {[7-Hydroxy-3-(4-methoxy-phenyl)-isoxazolo[4,5-c]pyridine-6-carbonyl]-amino}-acetic acid] |  |
|  | 100 | C[C@H](NC(=O)c1ncc2onc(-c3ccccc3)c2c1O)C(=O)O [Example 30, 2-[(4-Hydroxy-3-phenyl-isoxazolo[5,4-c]pyridine-5-carbonyl)-amino]-(S)-propionic acid] |  |
| 88.2 |  | O=C(O)CNC(=O)c1ncc2onc(-c3c(F)cccc3Cl)c2c1O [Example 18, {[3-(2-Chloro-6-fluoro-phenyl)-4-hydroxy-isoxazolo[5,4-c]pyridine-5-carbonyl]-amino}-acetic acid] |  |
|  | 99.9 | N#Cc1nc(C(=O)NCC(=O)O)c(O)c2onc(-c3ccc(Br)o3)c12 [Example 54, {[3-(5-Bromo-furan-2-yl)-4-cyano-7-hydroxy-isoxazolo[4,5-c]pyridine-6-carbonyl]-amino}-acetic acid] |  |
| 98.7 |  | O=C(O)CNC(=O)c1ncc2onc(-c3ccc(OC(F)(F)F)cc3)c2c1O [Example 39, {[4-Hydroxy-3-(4-trifluoromethoxy-phenyl)-isoxazolo[5,4-c]pyridine-5-carbonyl]-amino}-acetic acid] |  |
| 98.6 |  | O=C(O)CNC(=O)c1ncc2onc(-c3cccc(Cl)c3)c2c1O [Example 17, {[3-(3-Chloro-phenyl)-4-hydroxy-isoxazolo[5,4-c]pyridine-5-carbonyl]-amino}-acetic acid] |  |
